Results on 26 compounds are retold here after patent US20230322789A1, “PYRAZOLOPYRIDAZINONE COMPOUND, AND PHARMACEUTICAL COMPOSITION AND USE THEREOF” (BroadenBio Co., Ltd., priority 2020, published 2023).

Experiment [1] has as its target HPK1 (Homo sapiens (Human), UniProt Q92918). As to the kind of experiment: HPK1 kinase activity inhibition test (ADP-Glo, luminescence). Particulars: HPK1 5 nM, ATP 2 μM, read-out: IC50, inhibitory effects of compounds on HPK1 kinase activity. The class given is biochemical. In a few lines: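 HPK1 autophosphorylation was run without added substrate. Kinase and compound were preincubated 10 min at 25° C., then ATP was added for 60 min at 25° C. ADP formed was detected by ADP-Glo luminescence, and IC50 was taken from a four-parameter nonlinear fit.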

Experiment [2] relates to Human Jurkat-E6-1 cells. As to the kind of experiment: Measurement of IL-2 secretion of Jurkat cells by ELISA. Particulars: anti-CD3/anti-CD28 stimulation 24 hours; for activity at 1 µM: test compound 1.0 μM. The class given is cell-based. The method, then:
2. Measurement of IL-2 Secretion of Jurkat Cells by ELISA
Human Jurkat-E6-1 cells were incubated with various concentrations of test compounds for 30 minutes in a humidified incubator at 37° C. and […]. Cells were transferred to cell culture plates pre-coated with anti-human CD3 antibody, then soluble anti-human CD28 antibody was added, and cells were stimulated for 24 hours at 37° C. and 5% CO2 in a humidified incubator. The cell culture medium was collected by centrifugation, and was then transferred to a 96-well transparent microtiter plate (Thermo) pre-coated with anti-human IL-2 antibody, incubated at room temperature for 2 hours, and gently shaken, washed with washing buffer for 4 times, and then followed the ELISA MAX Deluxe Set Human IL-2 (BioLegend) kit procedure, used a microplate reader (Molecular Device, i3X) to read the GD value. The best standard curve was selected by the microplate reader application software, and the corresponding concentration was calculated according to the GD value of the standard. Results are expressed as a percentage of the amount of IL-2 secreted from compound-treated/DMSO-treated cells.

Setting [3] is: Homo sapiens, Jurkat E6.1, test compound 3.0 μM, read-out: Percentage of the amount of IL-2 secreted from compound treated/DMSO-treated cells.
[4] abbreviates: Homo sapiens, Jurkat E6.1, read-out: Percentage of the amount of IL-2 secreted from compound treated/DMSO-treated cells.

Molecules are shown by their SMILES.

Chain of HPK1 (Q92918 whole entry): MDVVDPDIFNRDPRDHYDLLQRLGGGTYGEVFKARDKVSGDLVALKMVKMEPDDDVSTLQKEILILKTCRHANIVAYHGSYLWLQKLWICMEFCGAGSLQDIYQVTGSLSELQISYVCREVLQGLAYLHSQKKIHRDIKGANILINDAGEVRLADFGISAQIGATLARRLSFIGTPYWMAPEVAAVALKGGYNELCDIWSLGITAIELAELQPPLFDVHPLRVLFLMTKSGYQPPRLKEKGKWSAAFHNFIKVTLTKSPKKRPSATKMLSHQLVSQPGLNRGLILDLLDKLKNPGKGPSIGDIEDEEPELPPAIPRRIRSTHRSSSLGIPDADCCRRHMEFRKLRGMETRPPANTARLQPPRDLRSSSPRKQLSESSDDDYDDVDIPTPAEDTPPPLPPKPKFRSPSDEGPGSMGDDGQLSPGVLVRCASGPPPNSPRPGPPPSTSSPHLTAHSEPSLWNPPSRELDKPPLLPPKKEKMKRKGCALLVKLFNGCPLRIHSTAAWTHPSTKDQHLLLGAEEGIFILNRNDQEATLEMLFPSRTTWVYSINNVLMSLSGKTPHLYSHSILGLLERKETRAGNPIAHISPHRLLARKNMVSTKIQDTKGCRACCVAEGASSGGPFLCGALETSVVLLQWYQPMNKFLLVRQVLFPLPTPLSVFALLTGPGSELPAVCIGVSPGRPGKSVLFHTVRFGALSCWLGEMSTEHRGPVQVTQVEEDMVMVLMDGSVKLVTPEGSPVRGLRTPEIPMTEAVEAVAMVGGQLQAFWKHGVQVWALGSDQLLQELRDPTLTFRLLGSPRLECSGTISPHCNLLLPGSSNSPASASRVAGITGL

For `Cc1cccc(F)c1-n1nc2c(-c3ccc(N4CCN(C)C(CO)C4)cc3)n[nH]c2cc1=O` (stereo not shown) [Compound 120, 5-(2-fluoro-6-methylphenyl)-3-(4-(3-(hydroxymethyl)-4-methylpiperazin-1-yl)phenyl)-1H-pyrazolo[4,3-c]pyridazin-6(5H)-one], in experiment [1], the 50% inhibitory concentration (IC50) is at most 50 nM. In addition, in experiment [2] (setting [3]), the activity at 3 µM is 482%.
Turning to `Cc1cccc(F)c1-n1nc2c(-c3ccc(N4CCC(O)CC4)cc3)n[nH]c2cc1=O` [Compound 138, 5-(2-fluoro-6-methylphenyl)-3-(4-(4-hydroxylpiperidin-1-yl)phenyl)-1H-pyrazolo[4,3-c]pyridazin-6(5H)-one], in experiment [1], the half-maximal inhibitory concentration (IC50) was at most 50 nM. Besides, the activity at 3 µM in experiment [2] (setting [3]) came to 873%.
For the compound `CN1CCN(c2ccc(-c3n[nH]c4cc(=O)n(-c5c(F)cccc5Cl)nc34)cn2)CC1` [Compound 107], the IC50 in experiment [1] is at most 50 nM. Further, in experiment [2] (setting [3]), the activity at 3 µM was found to be 599%.
The like results for `Cc1cc(C#N)cc(F)c1-n1nc2c(-c3ccc(N4CCN(C(=O)C(C)O)CC4)cc3)n[nH]c2cc1=O` (stereo not shown) [Compound 83] were, in that order, at most 50 nM and 252%.
Take `COc1cccc(F)c1-n1nc2c(-c3ccc(C4=CCN(C)CC4)cc3)n[nH]c2cc1=O` [Compound 23, 5-(2-fluoro-6-methoxyphenyl)-3-(4-(1-methyl-1,2,3,6-tetrahydro-pyridin-4-yl)phenyl)-1H-pyrazolo[4,3-c]pyridazin-6(5H)-one]: the IC50 in experiment [1] is at most 50 nM. Also, the activity at 0.33 µM in experiment [2] (Homo sapiens, Jurkat E6.1, test compound 0.33 μM, read-out: Percentage of the amount of IL-2 secreted from compound treated/DMSO-treated cells) came out at 379%.
As to `Cc1cccc(F)c1-n1nc2c(-c3ccc(N4C[C@@H]5C[C@H]4CN5C)cc3)n[nH]c2cc1=O` [Compound 87], the half-inhibitory concentration (IC50) in experiment [1] is at most 50 nM. Further, the activity at 3 µM in experiment [2] (setting [3]) worked out at 584%.
Turning to `Cc1cccc(F)c1-n1nc2c(-c3ccc(N4C[C@H]5C[C@@H]4CN5C)cc3)n[nH]c2cc1=O` [Compound 88, 5-(2-fluoro-6-methylphenyl)-3-(4-((1R,4R)-5-methyl-2,5-diazabicyclo[2.2.1]heptan-2-yl)phenyl)-1H-pyrazolo[4,3-c]pyridazin-6(5H)-one], the IC50 in experiment [1] was 50 to 500 nM. Further, in experiment [2] (setting [3]), the activity at 3 µM is 550%.
In the case of `COc1ccccc1-n1nc2c(-c3ccc(N4CCN(C)CC4)cc3)n[nH]c2cc1=O` [Compound 3, 5-(2-methoxyphenyl)-3-(4-(4-methylpiperazin-1-yl)phenyl)-1H-pyrazolo[4,3-c]pyridazin-6(5H)-one], in experiment [1], the IC50 was at most 50 nM. Further, in experiment [2] (setting [4]), the activity at 1 µM worked out at 211%.
As for `COc1cc(C(=O)N(C)C)cc(F)c1-n1nc2c(-c3ccc(N4CCN(C)CC4)cc3)n[nH]c2cc1=O` [Compound 80, 3-fluoro-5-methoxy-N,N-dimethyl-4-(3-(4-(4-methylpiperazin-1-yl)phenyl)-6-oxo-1H-pyrazolo[4,3-c]pyridazin-5(6H)-yl)benzamide], in experiment [1], the IC50 was at most 50 nM. The activity at 3 µM in experiment [2] (setting [3]) stood at 191%.
For the compound `COc1cccc(F)c1-n1nc2c(-c3ccc4c(c3)CN(C)CC4)n[nH]c2cc1=O` [Compound 73, 5-(2-fluoro-6-methoxyphenyl)-3-(2-methyl-1,2,3,4-tetrahydroisoquinolin-7-yl)-1H-pyrazolo[4,3-c]pyridazin-6(5H)-one], in experiment [1], the IC50 is at most 50 nM. For the same compound, the activity at 3 µM in experiment [2] (setting [3]) was 926%.
With `COc1cccc(F)c1-n1nc2c(-c3ccc(N4CCC(N5CCN(C)CC5)CC4)cc3)n[nH]c2cc1=O` [Compound 145, 5-(2-fluoro-6-methoxyphenyl)-3-(4-(4-(4-methylpiperazin-1-yl)piperidin-1-yl)phenyl)-1H-pyrazolo[4,3-c]pyridazin-6(5H)-one], the IC50 in experiment [1] was at most 50 nM. Further, the activity at 3 µM in experiment [2] (setting [3]) is 776%.
Taken in the same sequence, the figures for `COc1cccc(F)c1-n1nc2c(-c3cnn(C)c3)n[nH]c2cc1=O` [Compound 21, 5-(2-fluoro-6-methoxyphenyl)-3-(1-methyl-1H-pyrazol-4-yl)-1H-pyrazolo[4,3-c]pyridazin-6(5H)-one] were 50 to 500 nM and 258%.
Taken in the same sequence, the figures for `Cc1cccc(F)c1-n1nc2c(-c3ccc4c(c3)CN(CCO)CC4)n[nH]c2cc1=O` [Compound 162, 5-(2-fluoro-6-methylphenyl)-3-(2-(2-hydroxyethyl)-1,2,3,4-tetrahydroisoquinolin-7-yl)-1H-pyrazolo[4,3-c]pyridazin-6(5H)-one] were at most 50 nM and 586%.
The like results for `Cc1cccc(F)c1-n1nc2c(-c3ccc4c(c3)CN(C)CC4)n[nH]c2cc1=O` [Compound 156, 5-(2-fluoro-6-methylphenyl)-3-(2-methyl-1,2,3,4-tetrahydroisoquinolin-7-yl)-1H-pyrazolo[4,3-c]pyridazin-6(5H)-one] were, in that order, at most 50 nM and 849%.
Regarding `Cc1cccc(F)c1-n1nc2c(-c3ccc(N4CCN(C5CCOC5)CC4)nc3)n[nH]c2cc1=O` (stereo not shown) [Compound 106, 5-(2-fluoro-6-methylphenyl)-3-(6-(4-(tetrahydrofuran-3-yl)piperazin-1-yl)pyrid-3-yl)-1H-pyrazolo[4,3-c]pyridazin-6(5H)-one], the IC50 in experiment [1] is at most 50 nM. Also, the activity at 3 µM in experiment [2] (setting [3]) came out at 833%.
As for `COc1cccc(F)c1-n1nc2c(-c3ccc(N4CCC(C)(N(C)C)CC4)cc3)n[nH]c2cc1=O` [Compound 147, 3-(4-(4-(dimethylamino)-4-methylpiperidin-1-yl)phenyl)-5-(2-fluoro-6-methoxyphenyl)-1H-pyrazolo[4,3-c]pyridazin-6(5H)-one], in experiment [1], the concentration for half-maximal inhibition (IC50) was at most 50 nM. Also, the activity at 3 µM in experiment [2] (setting [3]) worked out at 616%.
As for `COc1cccc(F)c1-n1nc2c(-c3cccc(N4CCCC(N)C4)c3)n[nH]c2cc1=O` (stereo not shown) [Compound 204], the 50% inhibitory concentration (IC50) in experiment [1] was at most 50 nM. Moreover, in experiment [2] (test compound 3.0 μM), the “Percentage of the amount of IL-2 secreted from compound treated/DMSO-treated cells” value is 260%.
For `COc1cccc(F)c1-n1nc2c(-c3ccc(N4CCC(O)CC4)cc3)n[nH]c2cc1=O` [Compound 139, 5-(2-fluoro-6-methoxyphenyl)-3-(4-(4-hydroxylpiperidin-1-yl)phenyl)-1H-pyrazolo[4,3-c]pyridazin-6(5H)-one], in experiment [1], the IC50 was at most 50 nM. For the same compound, the activity at 3 µM in experiment [2] (setting [3]) was found to be 315%.
On to `Cc1cccc(F)c1-n1nc2c(-c3ccc(N4CCn5ccnc5C4)cc3)n[nH]c2cc1=O` [Compound 137, 3-(4-(5,6-dihydroimidazolo[1,2-a]pyrazin-7(8H)-yl)phenyl)-5-(2-fluoro-6-methylphenyl)-1H-pyrazolo[4,3-c]pyridazin-6(5H)-one], for which the IC50 in experiment [1] was at most 50 nM. The activity at 3 µM in experiment [2] (setting [3]) is 291%.
For the compound `COc1cccc(F)c1-n1nc2c(-c3cnn(C4CCN(C)CC4)c3)n[nH]c2cc1=O` [Compound 20], the 50% inhibitory concentration (IC50) in experiment [1] lay in the range of 50 to 500 nM. For the same compound, in experiment [2] (setting [4]), the activity at 1 µM was determined as 329%.
In the case of `Cc1cccc(F)c1-n1nc2c(-c3ccc(N4CC5CCC(C4)N5CCO)cc3)n[nH]c2cc1=O` [Compound 117, 5-(2-fluoro-6-methylphenyl)-3-(4-(8-(2-hydroxyethyl)-3,8-diazabicyclo[3.2.1]octan-3-yl)phenyl)-1H-pyrazolo[4,3-c]pyridazin-6(5H)-one], the IC50 in experiment [1] is at most 50 nM. In experiment [2] (setting [3]), the activity at 3 µM was found to be 566%.
For `CN1CCN(c2ccc(-c3n[nH]c4cc(=O)n(-c5ccccc5Cl)nc34)cc2)CC1` [Compound 7, 5-(2-chlorophenyl)-3-(4-(4-methylpiperazin-1-yl)phenyl)-1H-pyrazolo[4,3-c]pyridazin-6(5H)-one], the IC50 in experiment [1] is 50 to 500 nM. Also, the activity at 1 µM in experiment [2] (setting [4]) came to 314%.
`COc1cc(C#N)cc(F)c1-n1nc2c(-c3ccc4c(c3)CN(C)CC4)n[nH]c2cc1=O` [Compound 159, 3-fluoro-5-methoxy-4-(3-(2-methyl-1,2,3,4-tetrahydroisoquinolin-7-yl)-6-oxo-1H-pyrazolo[4,3-c]pyridazin-5(6H)-yl)benzonitrile]: in experiment [1], the IC50 is at most 50 nM. In experiment [2] (setting [3]), the activity at 3 µM was 454%.
For `Cc1cccc(F)c1-n1nc2c(-c3ccc4c(c3)CN3C(=O)OC[C@@H]3C4)n[nH]c2cc1=O` [Compound 177, (S)-7-(5-(2-fluoro-6-methylphenyl)-6-oxo-5,6-dihydro-1H-pyrazolo[4,3-c]pyridazin-3-yl)-10,10a-dihydro-1H-oxazolo[3,4-b]isoquinolin-3(5H)-one], the IC50 in experiment [1] was at most 50 nM. Further, the activity at 3 µM in experiment [2] (setting [3]) is 481%.
The like results for `Cc1cccc(F)c1-n1nc2c(-c3ccc(N4CCN5CCOC[C@H]5C4)cc3)n[nH]c2cc1=O` [Compound 134, (R)-5-(2-fluoro-6-methylphenyl)-3-(4-(hexahydropyrazino[2,1-c][1,4]oxazin-8(1H)-yl)phenyl)-1H-pyrazolo[4,3-c]pyridazin-6(5H)-one] were, in that order, at most 50 nM and 527%.
Consider `COc1cccc(F)c1-n1nc2c(-c3cnc(N4CCN(C)CC4)nc3)n[nH]c2cc1=O` [Compound 28, 5-(2-fluoro-6-methoxyphenyl)-3-(2-(4-methylpiperazin-1-yl)pyrimidin-5-yl)-1H-pyrazolo[4,3-c]pyridazin-6(5H)-one], for which the IC50 in experiment [1] is at most 50 nM. Besides, in experiment [2] (setting [4]), the activity at 1 µM came out at 302%.

Usually IC50 stands for the concentration that gives 50% inhibition.
